One compound from patent US7390892B2, “Nucleic acids encoding novel cyclic GMP dependent protein kinases from Elmeria maxima” (Merial Limited, priority 2001, dated 2008) can be followed below.

≈ marks a conversion by molar mass, not a printed value. Where “and” joins values, the source holds several entries; their conditions need not be identical. Identical values can stand only once.

In assay [1] the test system is Mixed-species field isolate of Eimeria DP-968 (E. maxima, E. acervulina, E. mitis, E. tenella). The assay is described as follows: Chicken battery experiment, mixed-species Eimeria field isolate DP-968. Particulars: chickens, field isolate DP-968, 125 ppm in feed. The assay is classed as in vivo. From the text:
(§1) Chicken battery experiments have also been conducted to evaluate L-167645 efficacy against mixed-species field isolates of Eimeria. The Eimeria cultures were obtained from grower farms in major broiler-producing states. Two of these field isolates, DP-924 and DP-968, contained E. maxima parasites. Each treatment group consisted of one pen of three one-week old White Leghorn chickens. Animals were placed on medicated feed at doses of L-167645 ranging from 25 to 150 ppm for the duration of the study. After 48 hrs, birds were infected by oral gavage with a total of 1×10^5 sporulated oocysts.

For assay [2], the system named is Mixed-species field isolate of Eimeria DP-924 (E. maxima, E. acervulina, E. mitis). The assay is described as follows: Chicken battery experiment, mixed-species Eimeria field isolate DP-924. The assay is classed as in vivo. Particulars: chickens, field isolate DP-924, 125 ppm in feed.
From the text: as §1

A further assay deals with T1, Native P. falciparum PKG (Plasmodium falciparum, UniProt Q8I719).
T1 construct: endogenous in cells; host or cells: P. falciparum NF54, schizont/trophozoite-enriched cultures in human erythrocytes; MonoQ then 8-AET-cGMP-agarose
Kind of assay: PKG catalytic assay, native P. falciparum PKG. The format is biochemical. The procedure:
The NF54 strain of P. falciparum was grown in 5% human O+ red blood cells in RPMI 1640 media supplemented with 10% heat-inactivated human serum and 3% hypoxanthine using modifications of standard conditions (Trager and Jensen, 1976, Science 193, 673-675). Media was changed daily and parasites were diluted into fresh erythrocytes to a parasitemia of 0.2-0.5% every 3 to 4 days; final parasitemia ranged from 4 to 10%. Synchronized cultures (Lambros and Vanderberg, 1979, J. Parasitology 65, 418-420) enriched for schizont and trophozoite stages were prepared in a continuous Percoll gradient (Rivadeneira et al, 1983 J. Protozoology 30, 367-370). […]
A linear NaCl gradient was applied (0-500 mM in 3ml @ 100 ul/min) and 100 ul fractions were collected and assayed for PKG enzyme activity. […] The purification of P. falciparum PKG was monitored by Western blot analysis using a commercially available antipeptide antisera directed at a conserved PKG peptide (Calbiochem Cat. No. 539729). • (v) PKG Catalytic Assay
(§2) Kinase activity was detected using a peptide substrate and [γ-^33P]-ATP. […] In both cases filters were washed with 75 mM phosphoric acid, dried and ^33P-labelled phosphopeptide was detected by liquid scintillation counting.

Another assay relates to Plasmodium falciparum. Kind of assay: PFAIV assay: tritiated hypoxanthine incorporation into parasitized red blood cells. The assay is classed as cell-based. To be noted: Erythrocyte, in vitro cell culture, 48 hours, [3H]-hypoxanthine incorporation, read-out: concentration of compound required to inhibit growth by 50% (IC50). The procedure:
The PFAIV assay is an in vitro assay designed to identify potential inhibitors of P. falciparum by measuring the incorporation of tritiated hypoxanthine into parasitized red blood cells.
The following method is an adaptation of the method described by Desjardins, R. E. et al, 1979. AAC Vol 16, p710-718:
1. Sixty microliters of a solution of RPMI 1640 media plus gentamycin (1:100 dilution) containing the desired concentration of test compound is added to the wells of a 96-well plate. (For titrations, 120 microliters is added to the top well and the compounds are serially diluted into 60 microliters of media.)
2. Fifty three microliters of parasitized red blood cells is added to the wells. The parasitemia of the culture is approximately 2-3% and the hematocrit is 5%. The red blood cells are diluted in RPMI 1640 media containing 20% human A+ serum and gentamycin.
3. Twelve microliters of RPMI1640 media containing 200 uCi [^3H] - hypoxanthine is added to each well.
4. The plates are incubated at 37° C. for 48 hours under […] (candle jar). After incubation, the plates are frozen overnight (for safety), then thawed and harvested using a manual 96-well harvester onto UNIFILTER GF/B plates.
5. The plates are counted on a Wallac instrument and % inhibition of parasite growth is determined as compared to control wells containing no compound.

The target of the next assay is Native E. maxima PKG (Eimeria maxima, UniProt Q8MMZ5). Kind of assay: PKG catalytic assay, native E. maxima PKG. The format is biochemical. The procedure: E. maxima unsporulated oocysts were harvested from the ceca of chickens seven days after infection with sporulated oocysts and purified using standard methods (Schmatz et al, 1986, J. Protozoology 33, 109-114). Soluble extracts were prepared by vortexing 2×10^9 E. maxima unsporulated oocysts with an equal volume of buffer (10 mM HEPES pH 7.4, 1 mM sodium orthovanadate, 20% glycerol, 0.1 mg/ml Bacitracin and 0.5% Sigma protease inhibitor cocktail P8340), and an equal volume of […] glass beads for 20 minutes. The resulting homogenate was centrifuged (100,000×g, 1 hour) and the supernatant (S100) collected. Native E. maxima PKG activity in the S100 fraction was affinity purified using an 8-AET-cGMP-agarose matrix as described below. • (iv) Isolation and Characterization of Native PKG from P. falciparum
Kinase activity was detected using a peptide substrate and [γ-^33P]-ATP. An aliquot containing the respective enzyme preparations was combined with a reaction mixture (10 μl) whose composition is as follows: 25 mM HEPES pH 7.4, 10 mM MgCl2, 20 mM beta-glycerophosphate, 5 mM beta-mercaptoethanol, 10 μM cGMP, 1 mg/ml BSA, 400 μM Kemptide, 2 μM [γ-^33P]ATP (0.1 mCi/ml). […] In both cases filters were washed with 75 mM phosphoric acid, dried and ^33P-labelled phosphopeptide was detected by liquid scintillation counting.

The test system of another assay is E. maxima. Kind of assay: Efficacy against E. maxima in infected chickens (oocyst counts). The format is in vivo. Particulars: 125 ppm in the feed, terminated on day 8. As for the experimental part:
Several studies have been conducted to evaluate the efficacy of […] against E. maxima in infected chickens. For efficacy studies against E. maxima alone, L-167645 was administered in the feed at doses from 25 to 150 ppm starting on day one. Birds were infected with 3.5×10^3 E. maxima sporalated oocysts on day 2 and medicated feed was continuously available at the respective doses for the duration of the study. The experiment was terminated on day 8, intestines were removed and homogenized and compound efficacy was estimated by performing oocyst counts.

The test system of the next assay is C. parvum. The assay is described as follows: In vitro tissue culture based assay with C. parvum. The format is cell-based.
The target of assay [3] is Recombinant E. maxima PKG (Eimeria maxima, UniProt Q8MMZ5). Kind of assay: PKG catalytic assay, recombinant E. maxima PKG. The format is biochemical.
From the text: T. gondii was selected as a host cell for recombinant expression of functional E. maxima PKG enzyme. An Eimeria maxima cDNA encoding the PKG open reading frame (ORF) was modified prior to subcloning for expression by appending either an N-terminal or C-terminal FLAG epitope for detection purposes via PCR amplification. DNA fragments encoding FLAG-epitope tagged PKGs were then placed in a T. gondii expression vector under the control of a Toxoplasma α-tubulin promoter (Soldati and Boothroyd, 1993, Science 260, 349-352). The vector encodes bacterial chloramphenicol acetyltransferase (CAT) as a selectable marker for transfection.
T. gondii tachyzoites of the RH strain were maintained by serial passage in primary human foreskin fibroblast cultures (HFF). Host cells were grown in Dulbecco's modified Eagle's medium with 10% heat-inactivated newborn bovine serum. […]
Recombinant FLAG-tagged E. maxima PKG was purified from T. gondii lysates by FLAG immuno-affinity chromatography. […] Protein was measured with a micro BCA reagent (Pierce), using a TCA/sodium deoxycholate step (Brown et al, 1989, Analytical Biochemistry 180, 136-139) to remove residual FLAG peptide prior to quantitation. […]
as §2

For a further assay, the system named is P. berghei. Kind of assay: Parasitemia in mice infected with P. berghei. The assay is classed as in vivo. Particulars: Balb C mice, individual mice 1-5. The procedure:
Balb C mice were infected intra-peritoneally with 1×10^6 P. berghei parasites in red blood cells. Two hours later twice daily intra-peritoneal treatment began with L-167645 in 10% DMSO. In the experiments described within, five animals were dosed with 75 milligrams compound per kilogram body weight (mpk) and received two treatments for one day. Five additional mice were dosed at 50 mpk and received two treatments daily for five days. Five control mice were dosed with an equivalent volume of 10% DMSO twice daily for 5 days. Parasite burden was measured by counting infected red blood cells as a function of total red blood cells (% parasitemia) and was performed periodically; -parasitemia on day 8 post-infection are tabulated below.

As for `CN1CCC(c2cc(-c3ccncc3)c(-c3ccc(F)cc3)[nH]2)CC1` [L-167645, 4-[2-(4-fluorophenyl)-5-(1-methylpiperidine4-yl)-1H-pyrrol-3-yl]pyridine], the entries for the “% Reduction in Oocyst Counts” value in [1] and in assay [2] were 86% and 97%, respectively. Further, the entries for the “Relative % Weight Gain” value in assay [1] and in [2] were 94% and 108%, respectively. The IC50 was 8.53 nM at Native P. falciparum PKG, 2.2 µg/mL (≈ 6.56 µM) with Plasmodium falciparum, 4.6 nM against Native E. maxima PKG and 4.2 nM in [3]. The “reduction in oocyst counts” value with E. maxima is on record as “greater than 99%”. Also, the “inhibition of parasitic growth” value with C. parvum was “effective in inhibiting parasitic growth”. Also, the “% parasitemia 8 days post-infection” value in the assay with P. berghei (50 mpk intra-peritoneal, twice daily for five days, 50 mg/kg) is 0% (2×) and 1% (2×) and 3%; in the assay with P. berghei (75 mpk intra-peritoneal, two treatments for one day, 75 mg/kg) it was 3% and 4% and 1% (2×) and Dead.
